Test results as given in patent US20140080704A1, “SUBSTITUTED VINYL AND ALKINYL CYCLOHEXENOLS AS ACTIVE AGENTS AGAINST ABIOTIC STRESS IN PLANTS” (priority 2011, published 2014).

How the values were obtained:
BRSNS (Brassica napus) = experiment: Drought stress test on greenhouse crop plants, spray application, efficacy EF (BRSNS); assay type: in vivo; details: dosage 25 g/ha, 600 l/ha water, mean of three results
Protocol: (§1) Seeds of monocotyledonous and dicotyledonous crop plants were laid out in sandy loam in wood-fiber pots, covered with soil and cultivated in a greenhouse under good growth conditions. The test plants were treated at the early leaf stage (BBCH10-BBCH13). To ensure uniform water supply before commencement of stress, the potted plants were supplied with the maximum amount of water immediately beforehand by dam irrigation and, after application, transferred in plastic inserts in order to prevent subsequent, excessively rapid drying. The inventive compounds, formulated in the form of wettable powders (WP), wettable granules (WG), suspension concentrates (SC) or emulsion concentrates (EC), were sprayed onto the green parts of the plants as an aqueous suspension at an equivalent water application rate of 600 l/ha with addition of 0.2% wetting agent (agrotin). Substance application is followed immediately by stress treatment of the plants (cold or drought stress). For cold stress treatment, the plants were kept under the following controlled conditions: • “day”: 12 hours with illumination at 8° C. • “night”: 12 hours without illumination at 1° C. […] The intensity of damage was first assessed as a percentage (100%=plants have died, 0%=like control plants). […]

ZEAMX (Zea mays) = experiment: Drought stress test on greenhouse crop plants, spray application, efficacy EF (ZEAMX); assay type: in vivo; details: dosage 25 g/ha, 600 l/ha water, mean of three results
Protocol: as §1

CC1=CC(=O)C2CC2(C)C1(O)C#CC1=CC(=O)OC1 (centres unmarked) [I.4-54, 4-[(2-hydroxy-1,3-dimethyl-5-oxobicyclo[4.1.0]hept-3-en-2-yl)ethynyl]furan-2(5H)-one]
EF (BRSNS): efficacy = percentage reduction in the intensity of damage (BRSNS (Brassica napus)): >5%
EF (ZEAMX): efficacy = percentage reduction in the intensity of damage (ZEAMX (Zea mays)): >5%
